Measured values reported in paper PMC4967449, “The role of acid-base imbalance in statin-induced myotoxicity” (Translational Research, 2016).
Structures can show the parent of a compound that is named as a salt. Where two headings read alike, the source gives them in different places. Each block holds one molecule with its values, some of them ahead of it.

Experiments:
[1] = tested on: undifferentiated C2C12 cells; assay: Cellular uptake of statins by undifferentiated C2C12 cells in medium of altered pH; format: cell-based, mouse; conditions: 1 μmol/L, LC MS/MS
Method: (§1) Samples temperature was kept at 4°C, and column temperature was set at 40°C.

[2] = tested on: differentiated C2C12 cells; assay: Cellular uptake of statins by differentiated C2C12 cells in medium of altered pH; format: cell-based, mouse; conditions: for intracellular levels of pravastatin: 1 μmol/L, LC MS/MS
Method: as §1

[3] = Hydrolysis of the lactone form of statins in DMEM culture medium of modified pH; format: physicochemical; conditions: 37°C
Method: (§2) The pH of DMEM culture medium was adjusted to the target values (6.8–7.8) by adding an appropriate volume of either 1.0 N HCl or NaOH to a medium containing 20 mmol/L 4-2-hydroxyethyl-1-piperazineethanesulfonic acid (HEPES) buffer. The pH was measured at incubation temperature (37°C) by Mettler Toledo T50 pH titrator. […] After equilibration, minor adjustment in pH was occasionally required to reach the desired final pH.[35] Maintaining medium under constant CO2 environment of 5% stabilizes the pH through CO2-HCO3^− equilibrium.[36] The pH of phosphate buffer saline (PBS) was adjusted to the target values (6.8–7.8) in the same way without the need for equilibration.
(§3) The interconversion of the lactone and hydroxy acid forms of simvastatin and pravastatin was investigated by incubating tested compounds with human plasma, PBS, and DMEM culture medium of defined pH values at 37°C for a predetermined period of time. […] Human plasma and PBS samples were incubated in C25 classic incubator shaker (New Brunswick Scientific). For DMEM samples, CO2 supply was maintained at 5% throughout experiment in a tissue culture incubator. The pH of different matrices was adjusted to simulate physiological pH, acidosis, and alkalosis as described previously. After incubation, the interconversion reaction was stopped at predetermined time points by adding 50 μL of ice-cold ammonium acetate buffer (100 mmol/L, pH 4.5) to 100 μL of tested samples.[14] Six replicates were tested at each pH level, and the concentrations of parent and corresponding forms were measured by fully validated HPLC analytical methods.
Fully validated HPLC-UV methods were used to determine the concentrations of the lactone and the corresponding hydroxy acid forms of simvastatin and pravastatin after interconversion studies in human plasma, PBS, and DMEM culture medium of different pH. Samples for HPLC analysis were prepared by protein precipitation followed by liquid-liquid extraction. A 100 μL of human plasma or DMEM samples were pipetted into 1.5 mL Eppendorf tubes, and 50 μL of ammonium acetate buffer (100 mmol/L, pH 4.5) along with 10 μL of internal standard solution (4,4-dichlorodiphenyltrichloroethane [DDT] or griseofulvin 100 μg/mL for simvastatin and pravastatin containing samples, respectively) was added, and samples were vortex mixed for 30 seconds. Proteins were precipitated by the addition of 300 μL of chilled ACN, and samples were vortex mixed for 1 minute and then centrifuged at 900g for 10 minutes at 4°C. […]
HPLC analysis was performed using Waters Alliance 2965 separation module equipped with Waters 996 Photodiode Array Detector and integrated autosampler. […] Chromatographic separation was monitored by photodiode array detector at 238 nm with an injection volume of 20 μL.

[4] = Interconversion / hydrolysis of the lactone form of statins in human plasma of modified pH; format: in vitro ADME; conditions: for proportion of lactone converted to the hydroxy acid form: 50 μmol/L, 24 hours at 37°C; for half-life at 50 μmol/L: 37°C
Method: as §3
(§4) Fully validated HPLC-UV methods were used to determine the concentrations of the lactone and the corresponding hydroxy acid forms of simvastatin and pravastatin after interconversion studies in human plasma, PBS, and DMEM culture medium of different pH. Samples for HPLC analysis were prepared by protein precipitation followed by liquid-liquid extraction. A 100 μL of human plasma or DMEM samples were pipetted into 1.5 mL Eppendorf tubes, and 50 μL of ammonium acetate buffer (100 mmol/L, pH 4.5) along with 10 μL of internal standard solution (4,4-dichlorodiphenyltrichloroethane [DDT] or griseofulvin 100 μg/mL for simvastatin and pravastatin containing samples, respectively) was added, and samples were vortex mixed for 30 seconds. Proteins were precipitated by the addition of 300 μL of chilled ACN, and samples were vortex mixed for 1 minute and then centrifuged at 900g for 10 minutes at 4°C. After centrifugation, the ACN layer was transferred into new glass test tubes, and 3 mL of methyl tert-butyl ether were added to each sample, vortex mixed for 10 minutes, and centrifuged at 1,615g for 10 minutes at 4°C. Finally, the upper organic layers were separated using glass Pasteur pipette, transferred into new glass tubes, and the contents of the tubes were evaporated to dryness using Techne Sample Concentrator (Bibby Scientific Ltd, UK). The dry residues were reconstituted with 100 μL of the mobile phase, vortex mixed, and placed into appropriate HPLC vials. Samples from PBS were extracted in the same way with one exception that the protein precipitation step was skipped.
(§5) HPLC analysis was performed using Waters Alliance 2965 separation module equipped with Waters 996 Photodiode Array Detector and integrated autosampler. System control and data processing were performed using Empower software. Chromatographic separation was achieved by ACE Excel Super C18 column (100 × 3 mm, 3 μm) under isocratic conditions with mobile phase consisting of ACN: 5 mmol/L ammonium acetate buffer, pH 4.5 (73:27 and 55:45, v/v for simvastatin and pravastatin samples, respectively). The flow rate was set at 0.4 mL/min for simvastatin and 0.3 mL/min for pravastatin samples. Samples temperature was kept at 4°C, and column temperature was set at 40°C.

[5] = Hydrolysis of the lactone form of statins in phosphate buffer saline of modified pH; format: physicochemical; conditions: phosphate buffer saline (PBS), 37°C
Method: as §2, §3, §4
as §5, with “40°C. Chromatographic separation was monitored by photodiode array detector at 238 nm with an injection volume of 20 μL.” for “40°C.”

[6] = tested on: undifferentiated C2C12 cells; assay: MTT cytotoxicity in undifferentiated C2C12 cells in medium of different pH; format: cell-based; conditions: Mus musculus, 72 hours, read-out: IC50 values of statins
Method: (§6) The effect of medium pH alteration on the cytotoxicity of statins was evaluated by MTT and LDH cytotoxicity assays. Both undifferentiated and differentiated C2C12 cells were used in these studies. […] Before starting treatment, the medium was replaced by a fresh one with modified pH (6.8, 7.4, and 7.8). […] Positive control samples with 100% cell death were obtained by treating cells with 1% Triton X-100. Produced formazan crystals were dissolved in DMSO, and the absorbance was measured at 570 nm using EnVision Multilabel Plate Reader (PerkinElmer). Results were expressed as percentage of the control, and IC50 was calculated using prism 6 (GraphPad Software Inc).

[7] = tested on: differentiated C2C12 cells; assay: MTT cytotoxicity in differentiated C2C12 cells in medium of different pH; format: cell-based; conditions: Mus musculus, acidic medium (pH 6.8), 72 hours, read-out: IC50 values of statins
Method: as §6

intracellular levels of pravastatin [1]: below the limit of quantification | intracellular levels of pravastatin [2]: below the limit of quantification
Structure (SMILES): CC[C@H](C)C(=O)O[C@H]1C[C@H](O)C=C2C=C[C@H](C)[C@H](CC[C@@H](O)C[C@@H](O)CC(=O)O)[C@H]21 [PVA, pravastatin hydroxy acid sodium]

half-life at 50 μmol/L ([3]; pH 6.8, 50 μmol/L): 17.3 ± 4 h | half-life at 50 μmol/L ([3]; pH 7.2, 50 μmol/L): 11.9 ± 2.71 h | half-life at 50 μmol/L ([3]; pH 7.4, 50 μmol/L): 9.72 ± 1.42 h | half-life at 50 μmol/L ([3]; pH 7.8, 50 μmol/L): 10.7 ± 0.81 h | intracellular levels of pravastatin [1]: below the limit of quantification | proportion of lactone converted to the hydroxy acid form ([4]; alkaline pH): ~99% | half-life at 50 μmol/L ([4]; pH 6.8, 50 μmol/L): 8.84 ± 0.31 h | half-life at 50 μmol/L ([4]; pH 7.0, 50 μmol/L): 7.39 ± 0.22 h | half-life at 50 μmol/L ([4]; pH 7.2, 50 μmol/L): 6.61 ± 0.95 h | half-life at 50 μmol/L ([4]; pH 7.4, 50 μmol/L): 6.85 ± 0.54 h | proportion of lactone converted to the hydroxy acid form ([4]; physiological pH): ~98% | intracellular levels of pravastatin [2]: below the limit of quantification | half-life at 50 μmol/L ([5]; pH 6.8, 50 μmol/L): 21.2 ± 1.75 h | half-life at 50 μmol/L ([5]; pH 7.0, 50 μmol/L): 13 ± 1.38 h | half-life at 50 μmol/L ([5]; pH 7.2, 50 μmol/L): 9.36 ± 1.57 h | half-life at 50 μmol/L ([5]; pH 7.4, 50 μmol/L): 6.89 ± 0.41 h | half-life at 50 μmol/L ([5]; pH 7.6, 50 μmol/L): 5.59 ± 0.49 h | half-life at 50 μmol/L ([5]; pH 7.8, 50 μmol/L): 4.98 ± 0.44 h
Structure (SMILES): CC[C@H](C)C(=O)O[C@H]1C[C@H](O)C=C2C=C[C@H](C)[C@H](CC[C@@H]3C[C@@H](O)CC(=O)O3)[C@H]21 [PVL, pravastatin lactone]

increase in uptake at acidic extracellular pH ([2]; 1 μmol/L SVA): more than 2 folds | reduction in uptake under alkaline pH ([2]; 1 μmol/L SVA): approximately 50%
Structure (SMILES): CCC(C)(C)C(=O)O[C@H]1C[C@@H](C)C=C2C=C[C@H](C)[C@H](CC[C@@H](O)C[C@@H](O)CC(=O)O)[C@H]21 [SVA, simvastatin hydroxy acid ammonium salt]
IC50 ([6]; acidic medium (pH 6.8)): 2.22 ± 0.04 µM | IC50 ([6]; alkaline medium (pH 7.8)): 16.9 ± 0.48 µM | IC50 ([6]; neutral medium (pH 7.4)): 4.35 ± 0.09 µM | IC50 [7]: 65.4 ± 2.69 µM
